In patent publication US20230132133A1, “METHODS AND COMPOSITIONS FOR THE TREATMENT OF C. DIFFICILE” (priority 2018, published 2023):
≈ marks a conversion by molar mass, not a printed value.

Legend:
[1] = test system: B. amyloliquefaciens ART24; test: Antibiotic MIC following EFSA testing recommendations on lyophilized ART24 lots and cell banks; type: cell-based, Bacillus amyloliquefaciens; conditions: for MIC: Bacillus amyloliquefaciens, read-out: MIC for ART24
Description: The minimum inhibitory concentration (MIC) of the listed antimicrobials is expressed as µg/mL.

[2] = test system: B. amyloliquefaciens ART12; test: MIC of metronidazole and fidaxomicin, CLSI standard method; type: cell-based; conditions: Bacillus amyloliquefaciens, triplicates, 16 hours, read-out: MIC against ART12
Method: (§1) Briefly, minimum inhibitory concentration assays were carried out in triplicate using 96-well plates (Sarstedt). Two-fold serial dilutions from an initial concentration of 512 µg/mL of each antibiotic were carried out in BHI broth (Merck). An overnight of the target strain was subcultured and incubated to an OD600 nm of 0.5 before being diluted to give a final inoculum of 10^5 cfu/ml in 200 µL and added to the antibiotic preparations. The plates were incubated at an appropriate temperature and inspected after 16 hours. The MIC was determined as the lowest concentration at which no growth was visible.

[3] = test system: B. amyloliquefaciens ART24; test: as above; type: cell-based; conditions: Bacillus amyloliquefaciens, triplicates, 16 hours, read-out: MIC against ART24
Method: as §1

[4] = test system: B. amyloliquefaciens ART4; test: as above; type: cell-based; conditions: Bacillus amyloliquefaciens, triplicates, 16 hours, read-out: MIC against ART4
Method: as §1

[5] = test system: B. amyloliquefaciens ART12; test: Antibiotic MIC, VetMIC Lact-1 & Lact-2 panels; type: cell-based, Bacillus amyloliquefaciens; conditions: average results from N= 6, 24 hr at 37° C.; for MIC: Bacillus amyloliquefaciens, ART12
Method: (§2) The wells of the prefabricated 96-well plates were filled with 100 μL of the final suspension. The plates were sealed with an […], Sigma Aldrich) sealing film (to facilitate growth of the aerobic Bacillus strains. The plates were then incubated for 24 hr at 37° C. The results are recorded after 24 hours as the lowest concentration of the antibiotic to inhibit visible growth. The prefabricated panels […], Uppsala, Sweden) comprising the antibiotics ampicillin, vancomycin, gentamicin, kanamycin, streptomycin, erythromycin, clindamycin, tetracycline, chloramphenicol, neomycin, penicillin, quinupristin-dalfopristin, linezolid, trimethoprim, ciprofloxacin and rifampicin were used.

[6] = test system: B. amyloliquefaciens ART24; test: Antibiotic MIC, VetMIC Lact-1 & Lact-2 panels; type: cell-based, Bacillus amyloliquefaciens; conditions: average results from N= 6, 24 hr at 37° C.; for MIC: Bacillus amyloliquefaciens, ART24
Method: as §2

[7] = test system: B. amyloliquefaciens ART4; test: Antibiotic MIC, VetMIC Lact-1 & Lact-2 panels; type: cell-based, Bacillus amyloliquefaciens; conditions: average results from N= 6, 24 hr at 37° C.; for MIC: Bacillus amyloliquefaciens, ART4
Method: as §2

| Compound | MIC ([1]; ART24, source CO-33-12A2) | MIC ([1]; ART24, source CO-33 ART 24 BHI) | MIC ([1]; ART24, source CO-33 ART 024 S) | MIC ([1]; ART24, source YD CO-33-10A2) | MIC [5] | MIC [6] | MIC [7] | MIC interpretation for ART24 ([1]; source CO-33-12A2) | MIC interpretation for ART24 ([1]; source CO-33 ART 24 BHI) | MIC interpretation for ART24 ([1]; source CO-33 ART 024 S) | MIC interpretation for ART24 ([1]; source YD CO-33-10A2) | B. amyloliquefaciens MIC ART12 [5] | B. amyloliquefaciens MIC ART24 [6] | B. amyloliquefaciens MIC ART4 [7] | MIC for ART24 ([1]; source CO-33-12A2) | MIC for ART24 ([1]; source CO-33 ART 24 BHI) | MIC for ART24 ([1]; source CO-33 ART 024 S) | MIC for ART24 ([1]; source YD CO-33-10A2) | also measured |
| --- | --- | --- | --- | --- | --- | --- | --- | --- | --- | --- | --- | --- | --- | --- | --- | --- | --- | --- | --- |
| Cc1ncc([N+](=O)[O-])n1CCO [Metronidazole, metronidazole] | > 64 µg/mL | > 64 µg/mL | > 64 µg/mL | > 64 µg/mL | – | – | – | – | – | – | – | – | – | – | – | – | – | – | MIC ([1]; ART24, anaerobic, source CO-33-12A2): 64 µg/mL (≈ 374 µM); MIC ([1]; ART24, anaerobic, source CO-33 ART 24 BHI): 64 µg/mL (≈ 374 µM); MIC ([1]; ART24, anaerobic, source CO-33 ART 024 S): 64 µg/mL (≈ 374 µM); MIC ([1]; ART24, anaerobic, source YD CO-33-10A2): 64 µg/mL (≈ 374 µM); MIC [2]: 64 µg/mL; MIC [3]: 128 µg/mL; MIC [4]: 128 µg/mL |
| CO[C@H]1/C=C/O[C@@]2(C)Oc3c(C)c(O)c4c(O)c(c(/C=N/N5CCN(C)CC5)c(O)c4c3C2=O)NC(=O)/C(C)=C\C=C\[C@H](C)[C@H](O)[C@@H](C)[C@@H](O)[C@@H](C)[C@H](OC(C)=O)[C@@H]1C [Rifampicin] | 0.25 µg/mL (≈ 0.304 µM) | 0.25 µg/mL (≈ 0.304 µM) | 0.25 µg/mL (≈ 0.304 µM) | 0.25 µg/mL (≈ 0.304 µM) | 0.5 µg/mL (≈ 0.608 µM) | 0.5 µg/mL (≈ 0.608 µM) | 0.25 µg/mL (≈ 0.304 µM) | S | S | S | S | – | – | – | – | – | – | – | – |
| [H]/N=C(/N)N[C@H]1[C@H](O)[C@@H](O)[C@H](O[C@@H]2O[C@@H](C)[C@](O)(C=O)[C@H]2O[C@@H]2O[C@@H](CO)[C@H](O)[C@@H](O)[C@@H]2NC)[C@@H](N/C(N)=N\[H])[C@@H]1O [Streptomycin] | 1 µg/mL (≈ 1.72 µM) | 1 µg/mL (≈ 1.72 µM) | 2 µg/mL (≈ 3.44 µM) | 1 µg/mL (≈ 1.72 µM) | 4 µg/mL (≈ 6.88 µM) | 4 µg/mL (≈ 6.88 µM) | 4 µg/mL (≈ 6.88 µM) | S | S | S | S | – | – | – | – | – | – | – | – |
| CN(C)[C@@H]1C(O)=C(C(N)=O)C(=O)[C@@]2(O)C(O)=C3C(=O)c4c(O)cccc4[C@@](C)(O)[C@H]3C[C@@H]12 [Tetracycline] | 2 µg/mL (≈ 4.5 µM) | 2 µg/mL (≈ 4.5 µM) | 2 µg/mL (≈ 4.5 µM) | 2 µg/mL (≈ 4.5 µM) | 8 µg/mL (≈ 18 µM) | 4 µg/mL (≈ 9 µM) | 1 µg/mL (≈ 2.25 µM) | S | S | S | S | – | – | – | – | – | – | – | – |
| COc1cc(Cc2cnc(N)nc2N)cc(OC)c1OC [Trimethoprim] | ≤ 0.25 µg/mL | ≤ 0.25 µg/mL | ≤ 0.25 µg/mL | ≤ 0.25 µg/mL | ≤ 0.12 µg/mL | ≤ 0.12 µg/mL | ≤ 0.12 µg/mL | – | – | – | – | – | – | – | – | – | – | – | – |
| Gentamicin | – | – | – | – | – | – | – | S | S | S | S | ≤0.5 µg/mL | ≤0.5 µg/mL | ≤0.5 µg/mL | ≤ 0.06 µg/mL | ≤ 0.06 µg/mL | ≤ 0.06 µg/mL | ≤ 0.06 µg/mL | – |
| Neomycin | – | – | – | – | – | – | – | – | – | – | – | ≤0.5 µg/mL | ≤0.5 µg/mL | ≤0.5 µg/mL | ≤0.12 µg/mL | ≤0.12 µg/mL | ≤0.12 µg/mL | ≤0.12 µg/mL | – |
| Penicillin | – | – | – | – | – | – | – | S | S | S | S | 0.5 µg/mL | 0.12 to 0.5 µg/mL | 0.12 µg/mL | ≤ 0.03 µg/mL | ≤ 0.03 µg/mL | 0.06 µg/mL | ≤ 0.03 µg/mL | – |
| Quinupristin-dalfopristin | – | – | – | – | – | – | – | – | – | – | – | 4 µg/mL | 4 µg/mL | 4 µg/mL | 2 µg/mL | 2 µg/mL | 2 µg/mL | 1 µg/mL | – |
